We go through 14 molecules from paper PMC3809513, “Imidazopyridazines as potent inhibitors of Plasmodium falciparum calcium-dependent protein kinase 1 (PfCDPK1): Preparation and evaluation of pyrazole linked analogues^” (Bioorganic & Medicinal Chemistry Letters, 2013).

Like-named read-outs stand apart in the source and are kept apart here.

The target in data set [1] is PfCDPK1 (Plasmodium falciparum, UniProt P62344). The data set is described as follows: PfCDPK1 enzyme inhibition. It is filed as biochemical. Particulars: for LLE: LLE = pIC50 − m Log D.
Data set [2] in a line: Microsomal turnover, mouse liver microsomes. The following applies: % remaining after 30 min, 1 μM compound. The data set is classed as in vitro ADME. The method, then:
(§1) Microsomal turnover data was obtained using either human liver microsomes (HLM) or mouse liver microsomes (MLM) obtained from BD Biosciences. The compounds are pre-incubated at 37 °C for 5 minutes with the microsomes and the reaction was initiated by adding an equal volume of NADPH generating solution, also obtained from BD Biosciences. The final compound concentration in the incubation is 1 μM, and the microsomal protein concentration is 0.5 mg/ml for HLM and 0.2 mg/ml for MLM. A sample is taken at t=0 and quenched with 2x volume of ice-cold methanol containing an internal standard reference compound (carbamazepine). The reaction is agitated at 37 °C for 40 minutes (HLM) and 30 minutes (MLM) when a further sample was taken and quenched in an identical fashion. The samples were centrifuged at 10000 rpm for 10 minutes and the supernatant taken for analysis in triplicate by LC-MS/MS (Agilent Technologies G6410 series, triple quadrupole with MM-ESI ion source) using optimised multiple reaction monitoring (MRM) scans and a standard column gradient on an Acquity UPLC BEH C8 1.7μm column, running acetonitrile and water with 0.05% acetic acid as the mobile phase. The % turnover is obtained by calculating the percentage difference of the peak areas, normalised to the internal standard, at t=0 and t=40 (for human) or t=30 (for mouse). Verapamil is used as the standard compound for this assay.

Data set [3] in a line: Microsomal turnover, human liver microsomes. The data set is classed as in vitro ADME. Particulars: % remaining after 30 min, 1 μM compound. The method, then:
as §1, with “The reaction is agitated at 37 °C for 40 minutes (HLM) and 30 minutes (MLM) when a further sample was taken and quenched in an identical fashion.” left out, “The % turnover is obtained by calculating the percentage difference of the peak areas, normalised to the internal standard, at t=0 and t=40 (for human) or t=30 (for mouse).” left out
On the technique in general: Microsomes from liver hold many membrane-bound enzymes, among them those of drug oxidation.

Data set [4] in a line: PAMPA passive permeability. It is filed as in vitro ADME. The following applies: 5 hours at room temperature. The method, then: PAMPA assays were carried out using a 96 well BD Biosciences pre-coated PAMPA plate with 0.4 μm polyvinylidene fluoride filter plate, precoated with structured layers of phospholipids. […] The compound solution was placed in the lower ‘Donor’ well of the plate and the upper ‘Acceptor’ well of the plate was filled with PBS:DMSO 98:2 buffer containing no compound following which the plates was assembled then incubated for 5 hours at room temperature. After incubation the Donor and Acceptor wells were sampled into flat UV bottomed plates and a six fold 1:2 dilution series created for each compound starting at the appropriate top concentration for each compound. The UV absorbance for these solutions was read across 230-400 nm at 1 nm intervals using a TECAN Safire II plate reader and a suitable UV wavelength chosen around the UV maximum of each compound. This was used to calculate the concentration in the Donor and Acceptor wells for each compound. The compound permeability Papp (nm s^-1) and % mass retention was then calculated for each compound in accordance with the following equations:
Ceq = [CD(t)* VD+ CA(t)*VA]/(VD+VA)
% mass retention = 1 – [CD(t)*VD + CA(t)*VA]/(C0*VD)]
A = Filter Area, VD = Donor Well Volume, VA = Acceptor Well Volume, t = incubation time (secs), CA(t) = Acceptor concentration at time t, CD(t) = Donor concentration at time t, C0 = Initial Donor concentration
No result was reported for compounds where % mass retention exceeded 50%.
Background: PAMPA measures passive passage across an artificial lipid membrane.

The nature of data set [5]: LogD shake flask (octanol/PBS). It is filed as physicochemical. Particulars: measured log D. Here is the method: LogD measurements were carried out using the shake flask method. Compound was diluted from 10 mM DMSO stock solution into an eppendorf containing equal amounts of octanol and phosphate buffered saline (PBS) to give a final concentration of 100 μM. The tubes were shaken for 12 hours, centrifuged at 10000 rpm for 10 minutes and samples taken from the octanol and PBS layers. The samples from both layers were analysed in triplicate by LC-MS/MS (Agilent Technologies G6410 series, triple quadrupole with MM-ESI ion source) using optimised multiple reaction monitoring (MRM) scans and a standard column gradient on an Acquity UPLC BEH C8 1.7 μm column, running acetonitrile and water with 0.05% Acetic Acid as the mobile phase. The ratios of areas of the peaks were used to calculate the LogD in accordance with the equation: LogD = Log10(Area-TL/Area BL)

Data set [6] deals with P. falciparum. The data set is described as follows: P. falciparum parasite growth assay (FACS, hydroethidine). The following applies: in vitro parasite growth, compounds added 24 h post-invasion, cells recovered 48 h later; for EC50: Plasmodium falciparum, read-out: Pf EC50. It is filed as cell-based, Plasmodium falciparum. The method, then:
[12] P. falciparum EC50 values were measured using an in vitro model of malaria parasite growth. Compounds were diluted into 2% DMSO and added to parasites 24 h post-invasion in a 96-well plate and incubated under static conditions. Cells were recovered 48 h later and processed for FACS analysis using hydroethidine to stain parasite DNA. Data was acquired using a Guava easyCyte Plus flow cytometer with ExpressPro software. Growth inhibition was calculated using the following formula: % growth inhibition = (1 − [parasitaemia of culture/parasitaemia of control culture]) × 100.

Data set [7] deals with 73-member human kinase panel. The data set is described as follows: Kinase selectivity profiling against human kinase panel. The data set is classed as biochemical. Particulars: 73-member human kinase panel at 1 μM concentration; green <50%, orange 50–80%, red >80% inhibition in Figure 2. The source says: They also display key ADME properties which serve to complement analogues such as 2, where a 6-membered aryl or heteroaryl ring linker had been used (Table 5). As expected, the pyrazole linker has contributed to lowering log D in these new analogues, and perhaps more importantly has promoted a significant increase in ligand lipophilic efficiency (LLE)[22] as compared to compounds such as 2. This parameter is well-known to offer a useful guide to potency and lipophilicity during the progression of chemical series from hits towards leads. In addition, we observed promising kinase selectivity profiles for key examples on screening against a human kinase panel at 1 μM concentration,[23] as shown in Figure 2. The aryl pyrazoles described here thus represent a useful additional possibility for progressing towards alternative early lead compounds with good development characteristics.
[23] Kinase selectivity profiling was carried out by the National Centre for Protein Kinase Profiling at the MRC Protein Phosphorylation Unit (University of Dundee, UK).

Details of data set [8]: method as in PMID 23570789. Particulars: % remaining after 30 min incubation with mouse liver microsomes; cited from earlier work.
Data set [9] deals with P. falciparum. Also noted: method as in PMID 23570789. The following applies: reference compound 2; read-out: Pf EC50; cited from earlier work.
Details of data set [10]: method as in PMID 23570789. The following applies: % remaining after 30 min incubation with human liver microsomes; cited from earlier work.

Sequence of PfCDPK1 (P62344 whole entry): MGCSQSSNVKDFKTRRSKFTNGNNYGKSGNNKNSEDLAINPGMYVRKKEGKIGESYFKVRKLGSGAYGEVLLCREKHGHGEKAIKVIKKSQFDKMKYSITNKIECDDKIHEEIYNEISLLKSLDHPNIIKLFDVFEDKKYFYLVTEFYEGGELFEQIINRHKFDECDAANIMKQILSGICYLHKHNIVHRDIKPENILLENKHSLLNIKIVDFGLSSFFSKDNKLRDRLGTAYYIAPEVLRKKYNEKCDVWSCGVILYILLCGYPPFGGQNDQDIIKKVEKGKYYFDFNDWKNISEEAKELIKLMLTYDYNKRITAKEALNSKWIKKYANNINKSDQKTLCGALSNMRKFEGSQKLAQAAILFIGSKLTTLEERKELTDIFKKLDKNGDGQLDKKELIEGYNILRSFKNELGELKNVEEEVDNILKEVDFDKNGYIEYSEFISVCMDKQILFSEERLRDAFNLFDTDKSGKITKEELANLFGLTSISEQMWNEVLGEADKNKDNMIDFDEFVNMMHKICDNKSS

Regarding `N[C@H]1CC[C@H](Nc2ccc3ncc(-c4cnn(-c5ccc(F)cc5)c4)n3n2)CC1` [Compound 29], in [1], the IC50 – broadly, the concentration that gives 50% inhibition – amounted to 56 nM and the LLE was 5.3. In [2], this molecule yielded an MLM % rem of 84%. Besides, the HLM % rem in [3] stood at 80%. Also, in data set [4], the Papp (in general, a coefficient for how fast a substance crosses the barrier) at 5 h, up to 200 µM worked out at 4.3 ×10⁻⁶ cm/s. In addition, the log distribution coefficient (logD) (usually the decadic logarithm of the distribution of all forms, ionised or not, between an organic phase and buffer at a given pH) at 12 h, 100 µM in data set [5] worked out at 1.9. In addition, in data set [6], the EC50 (usually the concentration giving half of the maximal effect) is 262 nM.
With `CN1CCC(Nc2ccc3ncc(-c4cnn(-c5ccc(C#N)cc5)c4)n3n2)CC1` [Compound 36], inhibition in data set [1] was half-maximal at 854 nM (IC50). For the same molecule, the MLM % rem in [2] is recorded as 59%. The HLM % rem in data set [3] is recorded as 79%. Also, the Kinases inhibited result in data set [7] was “RSK1, ROCK2, PRK2, MNK1, MNK2, SmMLCK, PHK, CHK1, MARK3, BRSK2, MELK, NUAK1, CK1, CK2, DRYK1A, PIM1, PAK4, MST2, GCK, MINK1, MLK1, MLK3, IRAK4, SRC, YES1, BTK, EPH-A2, HER4, VEG-FR”. For the same molecule, the pH-dependent lipophilicity (logD) at 12 h, 100 µM in data set [5] was 1.9.
For `Cc1nn(-c2ccccc2)cc1-c1cnc2ccc(NC3CCN(C)CC3)nn12` [Compound 11], in data set [1], the concentration for half-maximal inhibition (IC50) came out at 3610 nM.
Consider `CN1CCC(Oc2ccc3ncc(-c4cnn(-c5ccc(F)cc5)c4)n3n2)CC1` [Compound 31], for which 184 nM corresponded to half-maximal inhibition in [1] (IC50). Moreover, in [2], the MLM % rem came out at 38%. The molecule also returned an HLM % rem in [3] of 61%. In [4], this molecule yielded a Papp at 5 h, up to 200 µM of 21.4 ×10⁻⁶ cm/s. Moreover, the log distribution coefficient (logD) at 12 h, 100 µM in data set [5] worked out at 2.6.
On to `CN1CCC(Nc2ccc3ncc(-c4cnn(-c5ncc(F)cn5)c4)n3n2)CC1` [Compound 25], for which the IC50 in [1] is 486 nM. In addition, in [5], the pH-dependent lipophilicity (logD) at 12 h, 100 µM was 2.
`CN1CCC(Nc2ccc3ncc(-c4cnn(-c5ccccc5F)c4)n3n2)CC1` [Compound 16]: the IC50 in data set [1] came to 76 nM. Besides, the log distribution coefficient (logD) at 12 h, 100 µM in data set [5] turned out to be 3.4. In data set [6], the EC50 stood at 567 nM.
Take `Fc1ccc(-n2cc(-c3cnn4ccc(C5CCCNC5)nc34)cn2)cc1` (centres unmarked) [Compound 34]: the half-maximal inhibitory concentration (IC50) in [1] is 176 nM. This molecule registered an MLM % rem in data set [2] of 56%. Besides, in data set [3], the HLM % rem came out at 80%. Further, the apparent permeability (Papp) at 5 h, up to 200 µM in data set [4] is 21.7 ×10⁻⁶ cm/s. This molecule gave a log distribution coefficient (logD) at 12 h, 100 µM in data set [5] of 1.4. Also, the 50% effective concentration (EC50) in data set [6] stood at 3830 nM.
Turning to `Fc1ccc(-n2cc(-c3cnc4ccc(N[C@H]5CC[C@H](N6CCCC6)CC5)nn34)cn2)cc1` [Compound 30], half-maximal inhibition in data set [1] (IC50) was put at 129 nM. In [2], this molecule came in with an MLM % rem of 66%. The same molecule returned an HLM % rem in [3] of 42%. For the same molecule, in data set [4], the apparent permeability coefficient (Papp) at 5 h, up to 200 µM stood at 10.4 ×10⁻⁶ cm/s. This molecule also had a logD at 12 h, 100 µM in data set [5] of 2.8. In data set [6], the EC50 was determined as 373 nM.
On to `CC(C)CCNc1ccc(-c2cnc3ccc(NC4CCN(C)CC4)nn23)cn1` [Compound 2], for which, in [8], the MLM % rem is on record as 85%. In data set [9], the half-maximal effective concentration (EC50) was 400 nM. Besides, the HLM % rem in data set [10] is 63%.
The molecule `CN1CCC(Nc2ccc3ncc(-c4cnn(-c5cnccn5)c4)n3n2)CC1` [Compound 26] came in with an IC50 in [1] of 31 nM. The same molecule returned an MLM % rem in [2] of 51%. In data set [3], this molecule showed an HLM % rem of 66%. In data set [4], this molecule yielded an apparent permeability (Papp) at 5 h, up to 200 µM of 0.05 ×10⁻⁶ cm/s. Besides, in [5], the pH-dependent lipophilicity (logD) at 12 h, 100 µM was found to be 2.2. Moreover, the half-maximal effective concentration (EC50) in data set [6] was 366 nM.
The molecule `CN1CCCC(c2ccn3ncc(-c4cnn(-c5ccc(F)cc5)c4)c3n2)C1` (centres unmarked) [Compound 35] showed an IC50 in data set [1] of 378 nM. The same molecule displayed an MLM % rem in [2] of 33%. The HLM % rem in data set [3] was found to be 55%. In data set [5], this molecule displayed a pH-dependent lipophilicity (logD) at 12 h, 100 µM of 2.5. For the same molecule, the 50% effective concentration (EC50) in [6] is 3540 nM.
In turn, `CN1CCC(Nc2ccc3ncc(-c4cnn(-c5cccc(C#N)c5)c4)n3n2)CC1` [Compound 37] returned an IC50 in data set [1] of 189 nM. The MLM % rem in data set [2] stood at 59%. In data set [3], this molecule gave an HLM % rem of 70%. Further, the log distribution coefficient (logD) at 12 h, 100 µM in [5] is 2.7. For the same molecule, the half-maximal effective concentration (EC50) in data set [6] stood at 255 nM.
For `Clc1ccc2ncc(Br)n2n1` [Compound 27], the Kinases inhibited result in data set [7] is “RSK1, PRK2, CHK1, MELK, NUAK 1, PIM1, MST2, GCK, MINK1, MLK1, MLK3, IRAK4, SRC, LCK, CSK, YES1, BTK, EPH-A2, EPH-B3, HER4, VEG-FR”.
As to `c1ccc(-n2cc(-c3cnc4ccc(NC5CCNCC5)nn34)cn2)cc1` [Compound 12], in [1], the IC50 was 43 nM and the LLE came out at 4.5. Also, the “LE (ligand efficiency)” value in data set [1] (from PfCDPK1 potency) amounted to 0.37. In data set [2], this molecule displayed an MLM % rem of 74%. Besides, the HLM % rem in data set [3] is given as 81%. Also, the apparent permeability (Papp) at 5 h, up to 200 µM in [4] stood at 2.3 ×10⁻⁶ cm/s. Besides, the Kinases inhibited result in data set [7] is “PRK2, PKD1, MSK1, MNK1, SmMLCK, CHK1, CHK2, Aurora B, NUAK1, PIM1, GCK, MINK1, MLK1, MLK3, IRAK4, SRC, LCK, YES1, EPH-A2, FGF-R1, HER4, VEG-FR”. Besides, in data set [5], the logD at 12 h, 100 µM amounted to 1.8. Moreover, in [6], the concentration for a half-maximal effect (EC50) came to 985 nM and the “Pf EC50” value is given as “sub-micromolar”.
